Results as given in US12528792B2, “Sulfonamide compounds and the use thereof in the treatment of cancer” (TROBIO THERAPEUTICS PTY LTD, priority 2019, dated 2026).

How the values were obtained:
A2780 (ovarian) cells = experiment: Anti-proliferative activity, Cell-Titre luminescent viability assay; format: cell-based; details: Homo sapiens, 72 h exposure, Cell-Titre luminescent reagent
Method: (§1) The ability of compounds of the disclosure to inhibit the proliferation of cancer cells representative of non-small cell lung cancer and ovarian cancer (Table 1), and pancreatic cancer, colorectal cancer and prostate cancer (Table 2) was assessed. Briefly, a predetermined number of cells as calculated from cell growth assays for each of the cell lines employed were seeded into their respective culture medium (using ATCC culture parameters—http://www.atcc.org) and cultured for 24 h at 37° C. and 5% CO2 in 96-well culture plates. Once attached, each cell line was then exposed to various concentrations of each respective analogue (100, 30, 10, 3, 1 and 0.3 µM or 30, 10, 3, 1, 0.3 and 0.1 μM), cultured for a further 72 h and exposed to Cell-Titre luminescent reagent (100 μL/well) for a further 30 min. Luminescence was captured using an EnVision multilabel reader and the data for each analogue concentration compared against no treatment control. Cell viability was normalised to control (vehicle alone) and dose response curves, and half maximal effective concentration (EC50) values were determined using Graph Pad Prism 6 (nonlinear regression sigmoidal dose-response variable slope).

A549 (NSCLC) cells = experiment: as above; format: cell-based; details: Homo sapiens, 72 h exposure, Cell-Titre luminescent reagent
Method: as §1

Structure (SMILES) | IC50 (A2780 (ovarian) cells) | IC50 (A549 (NSCLC) cells)
Cc1ccc(NC(=O)C2CCN(S(=O)(=O)c3cc(C(N)=O)n(C)c3)CC2)cc1O [Compound 1, 1-((5-carbamoyl-1-methyl-1H-pyrrol-3-yl)sulfonyl)-N-(3-hydroxy-4-methylphenyl)piperidine-4-carboxamide] | > 100 µM | > 100 µM
Cn1cc(S(=O)(=O)N2CCC(C(=O)Nc3ccccc3)CC2)cc1C(N)=O [Compound 30, 1-((5-carbamoyl-1-methyl-1H-pyrrol-3-yl)sulfonyl)-N-phenylpiperidine-4-carboxamide] | > 100 µM | > 100 µM
CCc1ccccc1NC(=O)C1CCN(S(=O)(=O)c2ccc3[nH]ccc3c2)CC1 [Compound 61, 1-((1H-indol-5-yl)sulfonyl)-N-(2-ethylphenyl)piperidine-4-carboxamide] | > 30 µM | > 30 µM
Cc1cc(F)cc(NC(=O)c2ccn(S(=O)(=O)c3ccc4[nH]ccc4c3)c2)c1 [Compound 56, 1-((1H-indol-5-yl)sulfonyl)-N-(3-fluoro-5-methylphenyl)-1H-pyrrole-3-carboxamide] | 19.5 µM | 17.9 µM
CCc1ccc(NC(=O)c2ccn(S(=O)(=O)c3ccc4[nH]ccc4c3)c2)cc1 [Compound 40, 1-((1H-indol-5-yl)sulfonyl)-N-(4-ethylphenyl)-1H-pyrrole-3-carboxamide] | 11 µM | 11.3 µM
CCC(C)c1ccc(NC(=O)N2CCN(S(=O)(=O)c3ccc4c(c3)CCN4)CC2)cc1 (stereo not shown) [Compound 12, N-(4-(sec-butyl)phenyl)-4-(indolin-5-ylsulfonyl)piperazine-1-carboxamide] | > 100 µM | > 100 µM
CC(C)c1ccccc1NC(=O)c1ccn(S(=O)(=O)c2ccc3[nH]ccc3c2)c1 [Compound 39, 1-((1H-indol-5-yl)sulfonyl)-N-(2-isopropylphenyl)-1H-pyrrole-3-carboxamide] | > 30 µM | > 30 µM
O=C(Nc1cc(F)cc(F)c1)c1ccn(S(=O)(=O)c2ccc3[nH]ccc3c2)c1 [Compound 54, 1-((1H-indol-5-yl)sulfonyl)-N-(3,5-difluorophenyl)-1H-pyrrole-3-carboxamide] | 8.2 µM | 13.1 µM
Cc1cccc(C)c1NC(=O)c1ccn(S(=O)(=O)c2ccc3[nH]ccc3c2)c1 [Compound 51, 1-((1H-indol-5-yl)sulfonyl)-N-(2,6-dimethylphenyl)-1H-pyrrole-3-carboxamide] | 7.2 µM | 17.9 µM
CCC(C)c1ccc(NC(=O)N2CCN(S(=O)(=O)c3cc(C(N)=O)n(C)c3)CC2)cc1 (stereo not shown) [Compound 9, N-(4-(sec-butyl)phenyl)-4-((5-carbamoyl-1-methyl-1H-pyrrol-3-yl)sulfonyl)piperazine-1-carboxamide] | > 100 µM | > 100 µM
Cn1cc(S(=O)(=O)n2ccc(C(=O)Nc3ccc(C(F)(F)F)cc3)c2)cc1C(N)=O [Compound 20, 1-methyl-4-((3-((4-(trifluoromethyl)phenyl)carbamoyl)-1H-pyrrol-1-yl)sulfonyl)-1H-pyrrole-2-carboxamide] | 24.7 µM | > 100 µM
Cc1ccc(NC(=O)C2CCN(S(=O)(=O)c3ccc4c(c3)CCN4)CC2)cc1O [Compound 4, N-(3-hydroxy-4-methylphenyl)-1-(indolin-5-ylsulfonyl)piperidine-4-carboxamide] | > 100 µM | > 100 µM
O=C(Nc1c(F)cccc1F)c1ccn(S(=O)(=O)c2ccc3[nH]ccc3c2)c1 [Compound 53, 1-((1H-indol-5-yl)sulfonyl)-N-(2,6-difluorophenyl)-1H-pyrrole-3-carboxamide] | > 30 µM | > 30 µM
CNC(=O)C1CCN(S(=O)(=O)c2cc(C(N)=O)n(C)c2)CC1 [Compound 32, 1-((5-carbamoyl-1-methyl-1H-pyrrol-3-yl)sulfonyl)-N-methylpiperidine-4-carboxamide] | > 100 µM | > 100 µM
CCC(C)c1ccc(NC(=O)C2CCN(S(=O)(=O)c3cc(C(=O)N(C)C)n(C)c3)CC2)cc1 (stereo not shown) [Compound 27, N-(4-(sec-butyl)phenyl)-1-((5-(dimethylcarbamoyl)-1-methyl-1H-pyrrol-3-yl)sulfonyl)piperidine-4-carboxamide] | > 100 µM | > 100 µM

More lines, now with the values ahead:

IC50 (A2780 (ovarian) cells) | IC50 (A549 (NSCLC) cells) | Structure (SMILES)
3.9 µM | > 30 µM | O=C(Nc1ccc(F)nc1)c1ccn(S(=O)(=O)c2ccc3[nH]ccc3c2)c1 [Compound 74, 1-((1H-indol-5-yl)sulfonyl)-N-(6-fluoropyridin-3-yl)-1H-pyrrole-3-carboxamide]
4.53 µM | 5.17 µM | CC(C)(C)c1ccc(NC(=O)c2ccn(S(=O)(=O)c3ccc4[nH]ccc4c3)c2)cc1F [Compound 101, 1-((1H-indol-5-yl)sulfonyl)-N-(4-(tert-butyl)-3-fluorophenyl)-1H-pyrrole-3-carboxamide]
8.92 µM | > 30 µM | O=C(Nc1ccc2c(c1)OCO2)c1ccn(S(=O)(=O)c2ccc3[nH]ccc3c2)c1 [Compound 104, 1-((1H-indol-5-yl)sulfonyl)-N-(benzo[d][1,3]dioxol-5-yl)-1H-pyrrole-3-carboxamide]
> 30 µM | 6.72 µM | N#Cc1ccc(NC(=O)c2ccn(S(=O)(=O)c3ccc4[nH]ccc4c3)n2)cc1 [Compound 79, 1-((1H-indol-5-yl)sulfonyl)-N-(4-cyanophenyl)-1H-pyrazole-3-carboxamide]
> 30 µM | > 30 µM | CCC(C)c1ccc(CCNC(=O)c2ccn(S(=O)(=O)c3ccc(C(C)(C)C)cc3)c2)cc1 (stereo not shown) [Compound 88, N-(4-(sec-butyl)phenethyl)-1-((4-(tert-butyl)phenyl)sulfonyl)-1H-pyrrole-3-carboxamide]
> 30 µM | > 30 µM | CC(C)(C)c1ccc(S(=O)(=O)n2ccc(C(=O)NCCc3ccc(C(F)(F)F)cc3)c2)cc1 [Compound 90, 1-((4-(tert-butyl)phenyl)sulfonyl)-N-(4-(trifluoromethyl)phenethyl)-1H-pyrrole-3-carboxamide]
7.5 µM | 8.06 µM | CCCc1ccc(NC(=O)c2ccn(S(=O)(=O)c3ccc4[nH]ccc4c3)n2)cc1F [Compound 110, 1-((1H-indol-5-yl)sulfonyl)-N-(3-fluoro-4-propylphenyl)-1H-pyrazole-3-carboxamide]
4.32 µM | 7.92 µM | CCC(C)c1ccc(NC(=O)c2ccn(S(=O)(=O)c3ccc4[nH]ccc4c3)c2)cc1F (stereo not shown) [Compound 94, 1-((1H-indol-5-yl)sulfonyl)-N-(4-(sec-butyl)-3-fluorophenyl)-1H-pyrrole-3-carboxamide]
7.51 µM | 8.51 µM | CCC(C)c1ccc(NC(=O)c2ccn(S(=O)(=O)c3ccc4[nH]ccc4c3)n2)cc1 (stereo not shown) [Compound 105, 1-((1H-indol-5-yl)sulfonyl)-N-(4-(sec-butyl)phenyl)-1H-pyrazole-3-carboxamide]
> 30 µM | > 30 µM | O=C(Nc1ccc2c(c1)OCO2)c1ccn(S(=O)(=O)c2ccc3[nH]ccc3c2)n1 [Compound 117, 1-((1H-indol-5-yl)sulfonyl)-N-(benzo[d][1,3]dioxol-5-yl)-1H-pyrazole-3-carboxamide]
> 30 µM | > 30 µM | Cc1ccccc1NC(=O)C1CCN(S(=O)(=O)c2ccc3[nH]ccc3c2)CC1 [Compound 62, 1-((1H-indol-5-yl)sulfonyl)-N-(o-tolyl)piperidine-4-carboxamide]
13.4 µM | 16.1 µM | COc1ccc(NC(=O)c2ccn(S(=O)(=O)c3ccc4[nH]ccc4c3)c2)cc1 [Compound 102, 1-((1H-indol-5-yl)sulfonyl)-N-(4-methoxyphenyl)-1H-pyrrole-3-carboxamide]
≥ 30 µM | > 30 µM | O=C(Nc1ccc(Cl)nc1)c1ccn(S(=O)(=O)c2ccc3[nH]ccc3c2)n1 [Compound 87, 1-((1H-indol-5-yl)sulfonyl)-N-(6-chloropyridin-3-yl)-1H-pyrazole-3-carboxamide]
21.3 µM | 11.1 µM | O=C(Nc1ccc(Cl)cn1)c1ccn(S(=O)(=O)c2ccc3[nH]ccc3c2)n1 [Compound 85]
4.9 µM | 7.47 µM | CC(C)Cc1ccc(NC(=O)c2ccn(S(=O)(=O)c3ccc4[nH]ccc4c3)c2)cc1F [Compound 99, 1-((1H-indol-5-yl)sulfonyl)-N-(3-fluoro-4-isobutylphenyl)-1H-pyrrole-3-carboxamide]
5.28 µM | 7.84 µM | CC(C)c1ccc(NC(=O)c2ccn(S(=O)(=O)c3ccc4[nH]ccc4c3)c2)cc1F [Compound 95, 1-((1H-indol-5-yl)sulfonyl)-N-(3-fluoro-4-isopropylphenyl)-1H-pyrrole-3-carboxamide]
11.2 µM | 2.62 µM | O=C(Nc1ccc(Cl)cn1)c1ccn(S(=O)(=O)c2ccc3[nH]ccc3c2)c1 [Compound 73]
> 30 µM | > 30 µM | COc1ccc(NC(=O)c2ccn(S(=O)(=O)c3ccc4[nH]ccc4c3)n2)cc1 [Compound 115, 1-((1H-indol-5-yl)sulfonyl)-N-(4-methoxyphenyl)-1H-pyrazole-3-carboxamide]
13.2 µM | 4.84 µM | O=C(Nc1ccc(F)c(F)c1)c1ccn(S(=O)(=O)c2ccc3[nH]ccc3c2)n1 [Compound 80, 1-((1H-indol-5-yl)sulfonyl)-N-(3,4-difluorophenyl)-1H-pyrazole-3-carboxamide]
> 30 µM | > 30 µM | O=C(Nc1ccc(F)cn1)c1ccn(S(=O)(=O)c2ccc3[nH]ccc3c2)n1 [Compound 84, 1-((1H-indol-5-yl)sulfonyl)-N-(5-fluoropyridin-2-yl)-1H-pyrazole-3-carboxamide]
